Data on one compound can be found in patent US20060293395A1, “Methods for treating a mammal before, during and after cardiac arrest” (priority 2004, published 2006).

SMILES strings stand for the structures. Entries after “also recorded” stand apart in the source; their conditions may differ.

The subject of test [1] is Male Sprague-Dawley rats. Briefly: Example 4: levosimendan bolus during cardiopulmonary resuscitation (VF cardiac arrest). It is filed as in vivo, rat. Particulars: for ETCO2 / Negative dP/dt / left ventricular diastolic pressure: post-resuscitation (FIG. 23). How it is done: No anesthetic agents were initially administrated 30 min prior to inducing cardiac arrest. […] Right atrial pressure was measured with a high-sensitivity pressure transducer (model 42584-01; Abbott Critical Care System, North Chicago, Ill.). […] Blood temperature was measured with this sensor. […] Duplicate thermodilution curves were obtained and recorded with the aid of a cardiac output computer (CO-100; Institute of Critical Care Medicine, Palm Springs, Calif.). A PE 50 catheter was advanced through the left femoral artery into the thoracic aorta for sampling arterial blood for analysis of blood gases and for the measurement of aortic pressure with a high-sensitivity pressure transducer (model 42584-01; Abbott Critical Care System). Systolic, diastolic, and the interpreted mean arterial pressure were continuously recorded. […] A 4F polyethylene catheter (model C-PMS-401J; Cook Critical Care, Bloomington, Ind.) was next advanced through the right external jugular vein into the right atrium for inducing VF. A precurved guide wire, supplied with the catheter, was then advanced through the catheter into the right ventricle until an endocardial electrogram was observed. […] Current flow was then reduced to one half and continued for 3 min such as to prevent spontaneous defibrillation. VF was untreated for six min. […] Precordial compressions were performed with a pneumatically driven mechanical chest compressor. These procedures were previously described in greater detail (Von Planta I, supra) and are well-known to those of ordinary skill in the art (see e.g. Tang W, Weil M H, Sun S, Noc M, Yang L, Gazmuri R. Epinephrine increases the severity of postresuscitation myocardial dysfunction. Circulation 1995; 92: 3089-3093 and Sun S, Weil MH, Tang W, Povoas H, Mason E. Combined effect of buffer and adrenergic agent on postresuscitation myocardial function. Pharmacology 1999; 291 (2): 773-777).
Coincident with start of precordial compression, the animals were mechanically ventilated.

A further test deals with male domestic pigs. Briefly: Levosimendan on post-resuscitation myocardial function after beta-adrenergic blockade (propranolol). Type of test: in vivo, pig. Conditions: levosimendan added early postresuscitation after propranolol, in comparison with propranolol alone. On the procedure:
Anesthesia was initiated by intramuscular injection of ketamine (20 mg/kg) and completed by ear vein injection of sodium pentobarbital (30 mg/kg). Additional doses of sodium pentobarbital (8 mg/kg) were injected to maintain anesthesia at intervals of one hour. A cuffed endotracheal tube was advanced into the trachea. Animals were mechanically ventilated with a volume-controlled ventilator (Model MA-1, Puritan-Bennett, Carlsbad, Calif.) with a tidal volume of 15 mL/kg, peak flow of 40 L/min, and FiO2 of 0.21. End-tidal PCO2 (ETCO2) was monitored with an infrared analyzer (Model 01R-7101A, Nihon Kohden Corp, Tokyo, Japan). Respiratory frequency was adjusted to maintain PETCO2 between 35 and 40 mm Hg.
For the measurement of left ventricular functions, a 5.5/7.5 […] biplane with Doppler transesophageal echocardiographic transducer with 4-way flexure (Model 21363A, Hewlett-Packard Co., Medical Products Group, Andover, Mass.) was advanced from the incisor teeth into the esophagus for a distance of approximately 35 cm. For the measurement of aortic pressure, a fluid-filled catheter was advanced from the left femoral artery into the thoracic aorta. For the measurements of right atrial, pulmonary arterial pressures and blood temperature, a 7-French, pentalumen, thermodilution-tipped catheter was advanced from the left femoral vein and flow-directed into the pulmonary artery. A 7-French catheter was advanced from the left cephalic vein into the great cardiac vein for the measurement of great cardiac vein blood gases and lactate. For inducing VF, a 5-French pacing catheter (EP Technologies, Inc., Mountain View, Calif.) was advanced from the right cephalic vein into the right ventricle.
The investigators were blinded to the randomization. Cardiac arrest was induced with 1 to 2 mA AC delivered to the endocardium of the right ventricle. Mechanical ventilation was discontinued after onset of VF. At the end of the 7-min interval of untreated VF, precordial compression was started with a pneumatic piston-driven chest compressor (Thumper, Model 1000, Michigan Instruments, Grand Rapids, Mich.). […] The compression force was adjusted to decrease the anterior-posterior diameter of the chest by 25%. After 5 min of precordial compression, defibrillation was attempted with a 150 J biphasic waveform shock delivered between the right infraclavicular area and the cardiac apex. If an organized cardiac rhythm with mean aortic pressure of more than 60 mm Hg persisted for an interval of 5 min or more, the animal was regarded as successfully resuscitated. All animals had restoration of spontaneous circulation (ROSC) after electrical defibrillation, and were then randomized to three treatment groups: (1) propranolol (0.1 mg/kg bolus at 6 min of VF); (2) propranolol plus levosimendan (at 10 min after post resuscitation, 20 μg/kg over 10 min followed by 0.4 μg/kg/min for 220 min); and (3) equal volumes of saline as placebo.
Measurements were obtained over an interval of 4 hours following resuscitation. After 4 hours, animals were euthanized by intravenous injection of 150 mg kg^−1 pentobarbital. Autopsy was performed to document injuries to the bony thorax and the thoracic and abdominal viscera.

Test [2] deals with Male Sprague-Dawley rats. The test can be described thus: Example 1: post-resuscitation myocardial dysfunction after VF cardiac arrest, drug infusion for 240 min post-resuscitation.
[3] abbreviates: 20 μg/kg bolus during VF, vs placebo.
Where [4] appears, read: 4-hour interval following resuscitation, vs saline placebo (FIG. 22).

As for `C[C@@H]1CC(=O)NN=C1c1ccc(NN=C(C#N)C#N)cc1` [Levosimendan], in the test on Male Sprague-Dawley rats [1] (setting [3]), the “cumulative number of electrical shocks required for successful defibrillation” value is reported as “significantly less” and the “interval of CPR prior to successful resuscitation” value was “significantly shorter”. In the test on Male Sprague-Dawley rats [1] (setting [4]), the MAP result is “Significantly greater; also recorded: increases”, the cardiac index entry is given as “Significantly greater; also recorded: increases” and the dP/dt40 entry is reported as “Significantly greater; also recorded: increases”. Moreover, in the test with Male Sprague-Dawley rats [1] (levosimendan vs placebo controls, prior to/or after administration), the CPP result is “No differences”. The ST segment elevation result with Male Sprague-Dawley rats [1] (post-resuscitation) is reported as “lesser”. In the test on Male Sprague-Dawley rats [1], the ETCO2 entry was “increases”, the “Negative dP/dt” value is reported as “increases” and the “left ventricular diastolic pressure” value is “decreased”. In the test with Male Sprague-Dawley rats [1] (listed as levosimendan), the ETCO2 result is given as “increased”, the “Negative dP/dt” value is given as “increased” and the “left ventricular diastolic pressure” value was “reduction”. Also, the “duration of post-resuscitation survival” value with Male Sprague-Dawley rats [1] (vs placebo) was “significantly increased”. The “peripheral arterial resistance (PAR)” value in the test with Male Sprague-Dawley rats [1] (vs saline placebo (FIG. 24)) is “significantly decreased”. In the test on male domestic pigs, the EF entry was “additional and significant increases”; the FAC entry is “additional and significant increases”. For the same compound, in the test on Male Sprague-Dawley rats [2] (among the three groups, at PR10 and after administration of the drugs (FIG. 4)), the arterial pressures result is listed as “No significant differences”. The cardiac index result with Male Sprague-Dawley rats [2] (post-resuscitation (FIG. 6)) is listed as “comparable increases in cardiac index”. The “contractility as reflected in the dP/dt40” value with Male Sprague-Dawley rats [2] (post-resuscitation (FIG. 9)) is recorded as “consistently greater increases in contractility”. The stroke volume entry in the test with Male Sprague-Dawley rats [2] (post-resuscitation, initially (FIG. 7)) is “significantly greater stroke volumes”. Further, the “left ventricular diastolic (filling) pressures” value with Male Sprague-Dawley rats [2] (vs control and dobutamine-treated animals (FIG. 11)) was “substantially lower and near normal”. The post-resuscitation survival entry in the test on Male Sprague-Dawley rats [2] (vs dobutamine and placebo (FIG. 12)) is recorded as “significantly longer post-resuscitation survival”. Also, in the test on Male Sprague-Dawley rats [2] (vs placebo-treated controls (FIG. 8)), the “systemic vascular (arterial) resistance” value is “Comparable and significant reductions”.
